We go through 2 compounds from ChEMBL document CHEMBL6103578, “Design and synthesis three novel series of derivatives using natural acetylcholinesterase inhibitor-RLMS as template and in vitro, in vivo and in silico activities verification” (Eur J Med Chem, 2025).

The target in data set [1] is T1, Acetylcholinesterase (Homo sapiens, UniProt P22303). In words: Mixed competitive inhibition of AChE (unknown origin) at 2.5 to 15 uM by DTNB assay. The note with it: dose 2.5-15 µM.
The target of data set [2] is T1, Acetylcholinesterase. As to the kind of experiment: Inhibition of AChE (unknown origin) using ATCI as substrate preincubated for 20 mins followed by substrate addition measured after 30 mins by DTNB assay.
The test system of data set [3] is SH-SY5Y. As to the kind of experiment: Neuroprotective effect against H2O2-induced cell injury in human SH-SY5Y cells assessed as cell survival at 25 to 100 uM preincubated for 1 hr followed by H2O2 addition measured after 2 hrs by MTT assay (reference value: 57.76 %). Format: functional. The settings on record: dose 25-100 µM, time 3 hrs.
Data set [4] has as its system SH-SY5Y. In words: Neuroprotective effect against H2O2-induced cell injury in human SH-SY5Y cells assessed as cell survival at 25 uM preincubated for 1 hr followed by H2O2 addition measured after 2 hrs by MTT assay (reference value: 57.76 %). Format: functional. The settings on record: time 3 hrs, read-out: Activity.
A short description of data set [5]: Toxicity in zebrafish assessed as deformaties in animal at 100 uM measured 96 hrs post-fertilization. Details: species or system Danio rerio. The note with it: in vivo.
Data set [6] deals with T1, Acetylcholinesterase. In words: Binding affinity to AChE (unknown origin) assessed as dissociation constant by MST assay.
The species named for data set [7] is Danio rerio. As to the kind of experiment: Anti-alzheimer activity in AlCl3-treated zebrafish assessed as increase in movement speed at 25 to 75 uM treated for 72 hrs with medium replacement containing compound daily by light/dark cycle behavioral test. It counts as functional, organism-based. The settings on record: dose 25-75 µM.
Data set [8] can be described thus: Toxicity in zebrafish assessed as change in heart rate at 1 to 100 uM measured 96 hrs post-fertilization. Also on record: species or system Danio rerio. The settings on record: in vivo, dose 1-100 µM.
Data set [9] is described as follows: Toxicity in zebrafish assessed as malformation in animal at 100 uM measured 96 hrs post-fertilization. The settings on record: in vivo. Also on record: species or system Danio rerio.
The nature of data set [10]: Toxicity in zebrafish assessed as decrease in survival rate at 100 uM measured 96 hrs post-fertilization. Details: species or system Danio rerio. The settings on record: in vivo.
Data set [11] is filed under the species Danio rerio. In words: Anti-alzheimer activity in AlCl3-treated zebrafish assessed as increase in movement distance at 25 to 75 uM treated for 72 hrs with medium replacement containing compound daily by light/dark cycle behavioral test. It counts as functional, organism-based. The settings on record: dose 25-75 µM.
Data set [12] is filed under the species Danio rerio. As to the kind of experiment: Anti-alzheimer activity in AlCl3-treated zebrafish assessed as inhibition of apoptosis in brain treated for 72 hrs with medium replacement containing compound daily by AO staining based analysis. It counts as functional, organism-based. The note with it: dose 25-75 µM.
In data set [13] the target is T1, Acetylcholinesterase. In words: Mixed competitive inhibition of AChE (unknown origin) at 2 to 8 uM by DTNB assay. The settings on record: dose 2-8 µM.

The source made the active and inactive calls. No cut-off for these calls is given here. A value given as a limit tells only on which side of the number the result lay.

T1 sequence (P22303 whole entry): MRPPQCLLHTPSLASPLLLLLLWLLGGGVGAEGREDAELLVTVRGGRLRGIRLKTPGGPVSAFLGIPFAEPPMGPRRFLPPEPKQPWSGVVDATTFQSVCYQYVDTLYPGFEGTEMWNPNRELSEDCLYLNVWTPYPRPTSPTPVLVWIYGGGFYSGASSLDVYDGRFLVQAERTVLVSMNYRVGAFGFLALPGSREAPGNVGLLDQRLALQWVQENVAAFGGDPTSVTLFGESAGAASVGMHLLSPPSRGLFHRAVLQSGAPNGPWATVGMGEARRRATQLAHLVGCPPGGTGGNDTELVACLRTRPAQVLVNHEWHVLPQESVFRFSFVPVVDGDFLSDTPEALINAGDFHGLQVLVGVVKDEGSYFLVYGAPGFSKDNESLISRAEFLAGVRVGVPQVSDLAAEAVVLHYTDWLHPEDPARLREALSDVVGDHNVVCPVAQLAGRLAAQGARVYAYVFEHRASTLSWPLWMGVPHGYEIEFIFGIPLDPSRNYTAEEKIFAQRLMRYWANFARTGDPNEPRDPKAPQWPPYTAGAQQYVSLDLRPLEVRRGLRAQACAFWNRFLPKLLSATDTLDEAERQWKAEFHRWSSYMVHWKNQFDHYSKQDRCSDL

For `C[C@@H]1CC[C@]2(C(=O)O)CC[C@]3(C)C(=CC[C@@H]4[C@@]5(C)C[C@@H](OC(=O)CCc6ccccc6)[C@H](OC(=O)CCc6ccccc6)[C@@](C)(CO)[C@@H]5CC[C@]43C)[C@@H]2[C@]1(C)O`, on Acetylcholinesterase [1], the inhibition result is “Active”. The compound further showed an IC50 on Acetylcholinesterase [2] of 5.84 µM. In addition, in the data set with SH-SY5Y [3], the Activity was above 57.76%. Moreover, the viability at 25 µM in the data set on SH-SY5Y [4] is 72.5%.
As to `C[C@@H]1CC[C@]2(C(=O)NCc3ccccc3Cl)CC[C@]3(C)C(=CC[C@@H]4[C@@]5(C)C[C@@H](O)[C@H](O)[C@@](C)(CO)[C@@H]5CC[C@]43C)[C@@H]2[C@]1(C)O`, the Activity result was “Toxic” in data set [5]; “Non-toxic” in data set [8]; “Toxic” in [9]; “Toxic” in [10]; “Dose-dependent-effect” in the data set filed under Danio rerio [12]; above 57.76% in the data set on SH-SY5Y [3]. Besides, the Kd on Acetylcholinesterase [6] was 5.37 µM. For the same compound, the result in the data set listed under Danio rerio [7] and in the data set filed under Danio rerio [11] was Active. On Acetylcholinesterase [2], this compound gave an IC50 of 3.7 µM. Besides, at Acetylcholinesterase [13], the inhibition entry was “Active”. For the same compound, the viability at 25 µM in the data set on SH-SY5Y [4] is 80%.
